Results as given in ChEMBL document CHEMBL5500342, “Rational molecular design converting fascaplysin derivatives to potent broad-spectrum inhibitors against bacterial pathogens via targeting FtsZ” (Eur J Med Chem, 2024).
The source made the active and inactive calls. The calls are words filed in the database; no cut-off is given here.

Tests used:
Escherichia coli [1] = assay: Antibacterial activity against penicillin-susceptible Escherichia coli ATCC25922 assessed as log reduction in bacterial count at 1 times of MIC measured after 2 hrs by time kill kinetics assay; format: functional, organism-based
Escherichia coli [2] = assay: Antibacterial activity against penicillin-susceptible Escherichia coli ATCC25922 assessed as reduction in bacterial count incubated for 24 hrs by time kill kinetics assay; format: functional, organism-based
[3] = Cytotoxicity against mouse RAW264.7 cells assessed as cell viability at 6.25 microg/ml incubated for 24 hrs by CCK8 assay relative to control; format: toxicity, cell-based; details: at 6.25 µg/mL, read-out: Activity
Escherichia coli [4] = assay: Antibacterial activity against penicillin-susceptible Escherichia coli ATCC25922 assessed as log reduction in bacterial count at 2 times of MIC measured after 12 hrs by time kill kinetics assay; format: functional, organism-based
Staphylococcus aureus [5] = assay: Inhibition of biofilm formation in methicillin-resistant Staphylococcus aureus ATCC43300 assessed as decrease in biofilm formation rate at 4 times of MIC incubated for 24 hrs by crystal violet staining based analysis relative to control; format: functional; design: scale not given: the % may be the effect or the level left
Cell membrane [6] = assay: Disruption of cell membrane integrity in methicillin-resistant Staphylococcus aureus ATCC43300 assessed as cell wall disruption at 4 times of MIC incubated for 2 hrs by transmission electron microscopic analysis; format: cell membranes
Cell membrane [7] = assay: Disruption of cell membrane integrity in methicillin-resistant Staphylococcus aureus ATCC43300 assessed as leakage of intracellular contents at 4 times of MIC incubated for 2 hrs by transmission electron microscopic analysis; format: cell membranes
Escherichia coli [8] = assay: Drug resistance, ratio of MIC for penicillin-susceptible Escherichia coli ATCC25922 incubated for 18 to 24 hrs and measured after 4 passages to MIC for penicillin-susceptible Escherichia coli ATCC25922 measured after 18 to 24 hrs; format: functional
Staphylococcus aureus [9] = assay: Inhibition of biofilm formation in methicillin-resistant Staphylococcus aureus ATCC43300 assessed as decrease in biofilm formation rate at 16 times of MIC incubated for 24 hrs by crystal violet staining based analysis relative to control; format: functional; design: scale not given: the % may be the effect or the level left
Escherichia coli [10] = assay: Antibacterial activity against penicillin-susceptible Escherichia coli ATCC25922 assessed as log reduction in bacterial count measured after 8 hrs by time kill kinetics assay; format: functional, organism-based
Cell membrane [11] = assay: Disruption of cell membrane integrity in penicillin-susceptible Escherichia coli ATCC25922 assessed as appearance of wrecked cells at 4 times of MIC incubated for 2 hrs by transmission electron microscopic analysis; format: cell membranes
Escherichia coli [12] = assay: Antibacterial activity against penicillin-susceptible Escherichia coli ATCC25922 assessed as log reduction in bacterial count by time kill kinetics assay; format: functional
Staphylococcus aureus [13] = assay: Inhibition of biofilm formation in methicillin-resistant Staphylococcus aureus ATCC43300 assessed as decrease in biofilm formation rate at higher concentration incubated for 24 hrs by crystal violet staining based analysis relative to control; format: functional; design: scale not given: the % may be the effect or the level left

In the case of `O=C1c2ccccc2-[n+]2ccc3c([nH]c4ccc(-c5ccccc5C(F)(F)F)cc43)c21.[Cl-]`, the Activity (Escherichia coli [1]) is reported as “inactive”, the Activity (Escherichia coli [2]) is reported as “Dose-Dependent Effect” and the viability at 24 h, 6.25 microg/ml [3] is reported as 57%. For the same compound, the Activity (Escherichia coli [4]) was “inactive”, the Activity (Staphylococcus aureus [5]) was 18% and the Activity (Cell membrane [6]) was “Active”. The Activity (Cell membrane [7]) was “Active”.

In the case of `O=C1c2ccccc2-[n+]2ccc3c([nH]c4ccc(-c5ccccc5F)cc43)c21.[Cl-]`, the Ratio (Escherichia coli [8]) is reported as 12, the Activity (Staphylococcus aureus [9]) is reported as 12% and the Activity (Escherichia coli [10]) is reported as “inactive”.

For `O=C1c2ccccc2-[n+]2ccc3c([nH]c4ccc(-c5ccccc5Cl)cc43)c21.[Cl-]`, the Activity (Cell membrane [11]) was “Active”, the Activity (Escherichia coli [12]) was 1 log10CFU/ml and the Activity (Staphylococcus aureus [13]) was 15%.
